From patent publication US20230150977A1, “PYRIDAZINONE COMPOUNDS FOR THE TREATMENT OF NEUROMUSCULAR DISEASES” (Edgewise Therapeutics, Inc., priority 2020, published 2023) come the findings set out here.

Each structure is given as a SMILES string.

A word on the IC50: it is the concentration needed to halve the response being measured. Higher therefore signals lower potency.

The target of this assay is skeletal myofibrils (Rabbit Psoas) myosin ATPase. Put plainly: Skeletal Myofibril ATPase Assay. It counts as biochemical. The conditions noted are these: PK/LDH coupled, absorbance at 340 nm. As for the experimental part:
Overview: Myosin ATPase activity was assessed by using a coupled reaction system, in which ADP generated by the myosin ATPase function was coupled to the disappearance of NADH through the pyruvate kinase/lactate dehydrogenase (PK-LDH) system. Myosin ATPase activity produces ADP, which was used as a substrate for PK to produce pyruvate and regenerate ATP. The pyruvate was then used as a substrate by LDH to oxidize NADH to NAD+. The rate of the reaction was monitored through the time-dependent disappearance of NADH using absorbance at 340 nm. Inhibition of ATPase activity by the assayed compounds was indicated by a reduced rate of NADH loss, relative to vehicle-treated controls, over the experimental time window. To assess the selectivity of the assayed compounds for skeletal myofibrils, the compounds were counter-screened in cardiac myofibrils.
Materials: The following stock solutions and reagents were used in the Skeletal Myofibril ATPase Assay:
Stock Solutions of pCa buffer. Combine PIPES, CaCl2, and EGTA solutions with 70 mL of water. Adjust pH to 7.0 and bring final volume to 100 mL.
Buffer A & Buffer B. Buffers were stored on ice until use.
Skeletal Myofibril ATPase Assay Procedure: BSA, ATP, NADH, PEP, and DTT solutions were thawed at room temperature, then transferred to ice. Pellet-frozen myofibrils (approximately twice the required volume) were transferred into a sufficiently large tube and capped. Myofibrils were thawed by rolling in a water bath for approximately 15 min at room temperature and cooled on ice. Buffers A and B were prepared by adjusting volumes as necessary for required number of wells and stored on ice. 0.5 μL of the compounds to be assayed were added into wells of a 384-well plate. Buffers A and B were mixed by inversion immediately prior to use, then 25 μL of each was dispensed using a Multidrop dispenser (Buffer A first, then Buffer B). The absorbance within the wells was measured at 340 nm, using a kinetic protocol in which the wells are read every 1.5-2 min for 1 h. The reaction rate was qualitatively assessed by subtracting the minimum absorbance value from the maximum value for each well, using either the SoftMax Pro plate reader software or a spreadsheet program such as Excel. Using GraphPad Prism 8.0, the data was normalized, with 100% activity defined as the absorbance change in the 1% DMSO vehicle wells and 0% assigned to no change in absorbance over the course of the experiment. The normalized data were fit to a variable-slope four-parameter logistic model, constraining the bottom to be 0 or greater. Compounds of Table 1 to 3 were tested and results of the assay appear in Table 4 herein. A=IC50 is less than or equal to 10 μM; B=IC50 is greater than 10 μM and less than 100 μM; C=IC50 is greater than 100 μM.
As for `O=c1ccc(-c2cnc(OCC(F)(F)F)nc2)nn1CCC1CCC1` [Compound 1, 2-(2-cyclobutylethyl)-6-(2-(2,2,2-trifluoroethoxy)pyrimidin-5-yl)pyridazin-3(2H)-one], the IC50 was ≤ 10 µM.

Consider `O=c1ccc(-c2cnc(OCC(F)(F)F)nc2)nn1CCCc1ccccc1` [Compound 2, 2-(3-phenylpropyl)-6-(2-(2,2,2-trifluoroethoxy)pyrimidin-5-yl)pyridazin-3(2H)-one], for which the IC50 was ≤ 10 µM.

Take `CC1CC1CCn1nc(-c2cnc(OCC(F)(F)F)nc2)ccc1=O` (centres unmarked) [Compound 3, 2-(2-(2-methylcyclopropyl)ethyl)-6-(2-(2,2,2-trifluoroethoxy)pyrimidin-5-yl)pyridazin-3(2H)-one]: the IC50 was ≤ 10 µM.

As to `O=c1ccc(-c2cnc(OCC(F)(F)F)nc2)nn1CCc1ccccc1` [Compound 4, 2-phenethyl-6-(2-(2,2,2-trifluoroethoxy)pyrimidin-5-yl)pyridazin-3(2H)-one], the IC50 is ≤ 10 µM.

As to `O=c1ccc(-c2cnc(OCC(F)(F)F)nc2)nn1CCC1CC1` [Compound 5, 2-(2-cyclopropylethyl)-6-(2-(2,2,2-trifluoroethoxy)pyrimidin-5-yl)pyridazin-3(2H)-one], the IC50 was ≤ 10 µM.

Regarding `O=c1ccc(-c2cnc(OCC(F)(F)F)nc2)nn1CCc1ccc(Cl)cc1` [Compound 6, 2-(4-chlorophenethyl)-6-(2-(2,2,2-trifluoroethoxy)pyrimidin-5-yl)pyridazin-3(2H)-one], the IC50 is ≤ 10 µM.

For `O=c1ccc(-c2cnc(OCC(F)(F)F)nc2)nn1CCC12CC(C1)C2` [Compound 7, 2-(2-(bicyclo[1.1.1]pentan-1-yl)ethyl)-6-(2-(2,2,2-trifluoroethoxy)pyrimidin-5-yl)pyridazin-3(2H)-one], the IC50 was ≤ 10 µM.

As for `CCCn1nc(-c2cnc(OCC(F)(F)F)nc2)ccc1=O` [Compound 8, 2-propyl-6-(2-(2,2,2-trifluoroethoxy)pyrimidin-5-yl)pyridazin-3(2H)-one], the IC50 is ≤ 10 µM.

For `O=c1ccc(-c2cnc(OCC(F)(F)F)nc2)nn1CCc1cncc(F)c1` [Compound 9, 2-(2-(5-fluoropyridin-3-yl)ethyl)-6-(2-(2,2,2-trifluoroethoxy)pyrimidin-5-yl)pyridazin-3(2H)-one], the IC50 is ≤ 10 µM.

Regarding `O=c1ccc(-c2cnc(OCC(F)(F)F)nc2)nn1CCc1ccccn1` [Compound 10, 2-(2-(pyridin-2-yl)ethyl)-6-(2-(2,2,2-trifluoroethoxy)pyrimidin-5-yl)pyridazin-3(2H)-one], the IC50 is ≤ 10 µM.

For `O=c1ccc(-c2ccc(OC(F)F)cc2)nn1CCc1ccc(Cl)cc1` [Compound 11, 2-(4-chlorophenethyl)-6-(4-(difluoromethoxy)phenyl)pyridazin-3(2H)-one], the IC50 was ≤ 10 µM.

In the case of `O=c1ccc(-c2ccc(OC(F)F)nc2)nn1CCc1ccc(Cl)cc1` [Compound 12, 2-(4-chlorophenethyl)-6-(6-(difluoromethoxy)pyridin-3-yl)pyridazin-3(2H)-one], the IC50 is ≤ 10 µM.

As to `CC(Cn1nc(-c2cnc(OCC(F)(F)F)nc2)ccc1=O)c1ccccc1` (centres unmarked) [Compound 13, 2-(2-phenylpropyl)-6-(2-(2,2,2-trifluoroethoxy)pyrimidin-5-yl)pyridazin-3(2H)-one], the IC50 was ≤ 10 µM.

For the compound `COc1ccc(-c2ccc(=O)n(CC3CCCCC3)n2)cc1` [Compound 14, 2-(cyclohexylmethyl)-6-(4-methoxyphenyl)pyridazin-3(2H)-one], the IC50 is ≤ 10 µM.

For `O=c1ccc(-c2ccc(Cl)cc2)nn1CCc1ccccc1` [Compound 15, 6-(4-chlorophenyl)-2-phenethylpyridazin-3(2H)-one], the IC50 is ≤ 10 µM.

For the compound `COc1ccc(-c2ccc(=O)n(CCc3ccccc3)n2)cc1` [Compound 16, 6-(4-methoxyphenyl)-2-phenethylpyridazin-3(2H)-one], the IC50 is ≤ 10 µM.

The compound `CC(C)(C)CCn1nc(-c2cnc(OCC(F)(F)F)nc2)ccc1=O` [Compound 17, 2-(3,3-dimethylbutyl)-6-(2-(2,2,2-trifluoroethoxy)pyrimidin-5-yl)pyridazin-3(2H)-one] registered an IC50 of 10 to 100 µM.

The compound `O=c1ccc(-c2ccccc2)nn1CC(O)COCc1ccccc1Cl` (centres unmarked) [Compound 18, 2-(3-((2-chlorobenzyl)oxy)-2-hydroxypropyl)-6-phenylpyridazin-3(2H)-one] yielded an IC50 of 10 to 100 µM.

In the case of `O=c1ccc(-c2cnc(OCC(F)(F)F)nc2)nn1CCc1ccncc1` [Compound 19, 2-[2-(pyridin-4-yl)ethyl]-6-[2-(2,2,2-trifluoroethoxy)pyrimidin-5-yl]pyridazin-3-one], the half-maximal inhibitory concentration (IC50) is ≤ 10 µM.

For `CSc1ccc(-c2ccc(=O)n(C/C=C/c3ccccc3)n2)cc1` [Compound 20, 2-cinnamyl-6-(4-(methylthio)phenyl)pyridazin-3(2H)-one], the IC50 was ≤ 10 µM.

Turning to `O=c1ccc(-c2ccc(Cl)cc2)nn1CC1CCCCC1` [Compound 21, 6-(4-chlorophenyl)-2-(cyclohexylmethyl)pyridazin-3(2H)-one], the IC50 was ≤ 10 µM.

As for `O=c1ccc(-c2ccc3c(c2)OCCCO3)nn1CCOc1ccc(F)cc1` [Compound 22, 6-(3,4-dihydro-2H-benzo[b][1,4]dioxepin-7-yl)-2-(2-(4-fluorophenoxy)ethyl)pyridazin-3(2H)-one], the IC50 fell in the range of 10 to 100 µM.

`N#CCn1nc(-c2ccc(Br)cc2)ccc1=O` [Compound 23, 2-(3-(4-bromophenyl)-6-oxopyridazin-1(6H)-yl)acetonitrile] displayed an IC50 of 10 to 100 µM.

In the case of `CCOc1ccc(-c2ccc(=O)n(CCNC(=O)CC3CCCC3)n2)cc1` [Compound 24, 2-cyclopentyl-N-(2-(3-(4-ethoxyphenyl)-6-oxopyridazin-1(6H)-yl)ethyl)acetamide], the IC50 was > 100 µM.

The compound `N#CCn1nc(-c2cnc(OCC(F)(F)F)nc2)ccc1=O` [Compound 25, 2-(6-oxo-3-(2-(2,2,2-trifluoroethoxy)pyrimidin-5-yl)pyridazin-1(6H)-yl)acetonitrile] showed an IC50 of 10 to 100 µM.

For `CC(C)OCCn1nc(-c2ccc3c(c2)OCCCO3)ccc1=O` [Compound 26, 6-(3,4-dihydro-2H-benzo[b][1,4]dioxepin-7-yl)-2-(2-isopropoxyethyl)pyridazin-3(2H)-one], the IC50 lay within 10 to 100 µM.

The compound `C=C(C)Cn1nc(-c2ccc(Br)cc2)ccc1=O` [Compound 27, 6-(4-bromophenyl)-2-(2-methylallyl)pyridazin-3(2H)-one] displayed a concentration for half-maximal inhibition (IC50) of 10 to 100 µM.

Turning to `CCOc1ccc(-c2ccc(=O)n(CCNC(=O)C3CCCC3)n2)cc1` [Compound 28, N-(2-(3-(4-ethoxyphenyl)-6-oxopyridazin-1(6H)-yl)ethyl)cyclopentanecarboxamide], the 50% inhibitory concentration (IC50) was > 100 µM.

`CC(=O)NCCn1nc(-c2ccc(OC(F)F)cc2)ccc1=O` [Compound 29, N-(2-(3-(4-(difluoromethoxy)phenyl)-6-oxopyridazin-1(6H)-yl)ethyl)acetamide]: the IC50 was > 100 µM.

On to `CS(=O)(=O)NCCn1nc(-c2ccc(OC(F)F)nc2)ccc1=O` [Compound 30, N-(2-(3-(6-(difluoromethoxy)pyridin-3-yl)-6-oxopyridazin-1(6H)-yl)ethyl)methanesulfonamide], for which the IC50 was > 100 µM.

For `CC1(Cn2nc(-c3ccc(OC(F)F)nc3)ccc2=O)COC1` [Compound 31, 6-(6-(difluoromethoxy)pyridin-3-yl)-2-((3-methyloxetan-3-yl)methyl)pyridazin-3(2H)-one], the IC50 is > 100 µM.

With `CC1(Cn2nc(-c3cnc(OCC(F)(F)F)nc3)ccc2=O)COC1` [Compound 32, 2-((3-methyloxetan-3-yl)methyl)-6-(2-(2,2,2-trifluoroethoxy)pyrimidin-5-yl)pyridazin-3(2H)-one], the IC50 is > 100 µM.

With `CCNC(Cn1nc(-c2ccc(OC(F)F)nc2)ccc1=O)C(F)(F)F` (centres unmarked) [Compound 33, 6-(6-(difluoromethoxy)pyridin-3-yl)-2-(2-(ethylamino)-3,3,3-trifluoropropyl)pyridazin-3(2H)-one], the IC50 was > 100 µM.

On to `O=c1ccc(-c2ccc(OC(F)F)nc2)nn1CCO` [Compound 34, 6-(6-(difluoromethoxy)pyridin-3-yl)-2-(2-hydroxyethyl)pyridazin-3(2H)-one], for which the half-maximal inhibitory concentration (IC50) was > 100 µM.

As to `O=c1ccc(-c2ccc(Cl)cc2)nn1CC1CCOCC1` [Compound 35, 6-(4-chlorophenyl)-2-((tetrahydro-2H-pyran-4-yl)methyl)pyridazin-3(2H)-one], the IC50 was > 100 µM.
